ChEMBL document CHEMBL5465560, “Selectivity Literature for EUbOPEN Chemogenomic Library” (2024)
One block for each compound: values may come before it.

How the values were obtained:
[1] = target: Phosphorylase b kinase gamma catalytic chain, skeletal muscle/heart isoform (Homo sapiens) (UniProt Q16816); conditions: at 10 µM
[2] = target: Focal adhesion kinase 1 (Homo sapiens, UniProt Q05397); assay: Selectivity interaction (KinomeScan (DiscoverX)) EUB0001049a PTK2; conditions: at 1 µM
[3] = target: T1, Dual specificity mitogen-activated protein kinase kinase 4 (Homo sapiens) (UniProt P45985); assay: Selectivity interaction (ActivX KiNativ screen (kinase selectivity in THP-1 cell lysates)) EUB0000639a MAP2K4; type: subcellular; conditions: lysate, at 1 µM
T1 sequence (whole entry): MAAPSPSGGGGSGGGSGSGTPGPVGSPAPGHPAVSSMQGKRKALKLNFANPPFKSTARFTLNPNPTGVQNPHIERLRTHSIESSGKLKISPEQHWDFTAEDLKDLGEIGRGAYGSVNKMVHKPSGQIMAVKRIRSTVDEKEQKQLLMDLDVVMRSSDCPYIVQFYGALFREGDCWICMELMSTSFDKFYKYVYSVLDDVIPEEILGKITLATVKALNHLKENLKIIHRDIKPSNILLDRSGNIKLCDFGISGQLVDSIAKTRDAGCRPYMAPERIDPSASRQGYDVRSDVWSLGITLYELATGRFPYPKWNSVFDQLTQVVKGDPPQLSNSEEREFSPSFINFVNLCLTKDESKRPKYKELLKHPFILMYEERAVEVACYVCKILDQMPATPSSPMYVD

[4] = target: T2, Mitogen-activated protein kinase kinase kinase 15 (Homo sapiens) (UniProt Q6ZN16); assay: Selectivity interaction (ActivX KiNativ screen (kinase selectivity in THP-1 cell lysates)) EUB0000639a MAP3K15; type: subcellular; conditions: lysate
T2 sequence (whole entry): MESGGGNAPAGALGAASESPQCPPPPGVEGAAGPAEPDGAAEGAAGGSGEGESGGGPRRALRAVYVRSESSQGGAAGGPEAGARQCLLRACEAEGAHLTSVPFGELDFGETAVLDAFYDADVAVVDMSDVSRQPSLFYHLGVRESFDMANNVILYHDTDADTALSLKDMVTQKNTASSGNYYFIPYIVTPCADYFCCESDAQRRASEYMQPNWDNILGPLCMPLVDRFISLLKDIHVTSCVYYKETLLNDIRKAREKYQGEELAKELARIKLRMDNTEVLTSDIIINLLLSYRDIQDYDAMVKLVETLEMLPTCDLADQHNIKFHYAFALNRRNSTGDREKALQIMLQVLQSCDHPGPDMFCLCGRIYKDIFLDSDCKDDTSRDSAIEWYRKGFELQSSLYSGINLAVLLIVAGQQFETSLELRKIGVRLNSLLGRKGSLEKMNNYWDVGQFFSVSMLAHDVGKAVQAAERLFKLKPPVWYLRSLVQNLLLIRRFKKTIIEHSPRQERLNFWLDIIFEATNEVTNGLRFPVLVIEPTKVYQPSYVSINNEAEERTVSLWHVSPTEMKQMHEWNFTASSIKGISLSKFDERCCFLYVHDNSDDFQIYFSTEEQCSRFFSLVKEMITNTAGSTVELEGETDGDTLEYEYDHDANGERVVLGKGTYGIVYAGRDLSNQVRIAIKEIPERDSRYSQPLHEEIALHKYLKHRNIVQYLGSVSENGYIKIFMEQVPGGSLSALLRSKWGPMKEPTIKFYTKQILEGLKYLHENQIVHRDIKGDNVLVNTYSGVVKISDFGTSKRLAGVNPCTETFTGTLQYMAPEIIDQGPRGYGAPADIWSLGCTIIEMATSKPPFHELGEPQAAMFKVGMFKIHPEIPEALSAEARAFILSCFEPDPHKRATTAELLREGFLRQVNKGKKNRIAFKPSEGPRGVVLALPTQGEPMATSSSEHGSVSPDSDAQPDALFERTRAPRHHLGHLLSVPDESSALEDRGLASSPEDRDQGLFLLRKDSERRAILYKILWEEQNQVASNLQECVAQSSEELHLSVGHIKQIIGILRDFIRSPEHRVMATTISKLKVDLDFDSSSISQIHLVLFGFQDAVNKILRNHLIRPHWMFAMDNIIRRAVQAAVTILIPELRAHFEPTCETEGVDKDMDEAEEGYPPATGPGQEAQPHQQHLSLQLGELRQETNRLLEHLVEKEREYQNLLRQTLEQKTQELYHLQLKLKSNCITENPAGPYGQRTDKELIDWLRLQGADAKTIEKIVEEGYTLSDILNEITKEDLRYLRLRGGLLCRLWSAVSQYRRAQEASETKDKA

[5] = tested on: Hepatocyte growth factor receptor (Homo sapiens), P08581 [Y1235D]; assay: (§1) Selectivity interaction (KinomeScan (DiscoverX)) EUB0001079a MET; conditions: at 1 µM
Hepatocyte growth factor receptor (Homo sapiens), P08581 [Y1235D], sequence (P08581 whole entry Y1235D): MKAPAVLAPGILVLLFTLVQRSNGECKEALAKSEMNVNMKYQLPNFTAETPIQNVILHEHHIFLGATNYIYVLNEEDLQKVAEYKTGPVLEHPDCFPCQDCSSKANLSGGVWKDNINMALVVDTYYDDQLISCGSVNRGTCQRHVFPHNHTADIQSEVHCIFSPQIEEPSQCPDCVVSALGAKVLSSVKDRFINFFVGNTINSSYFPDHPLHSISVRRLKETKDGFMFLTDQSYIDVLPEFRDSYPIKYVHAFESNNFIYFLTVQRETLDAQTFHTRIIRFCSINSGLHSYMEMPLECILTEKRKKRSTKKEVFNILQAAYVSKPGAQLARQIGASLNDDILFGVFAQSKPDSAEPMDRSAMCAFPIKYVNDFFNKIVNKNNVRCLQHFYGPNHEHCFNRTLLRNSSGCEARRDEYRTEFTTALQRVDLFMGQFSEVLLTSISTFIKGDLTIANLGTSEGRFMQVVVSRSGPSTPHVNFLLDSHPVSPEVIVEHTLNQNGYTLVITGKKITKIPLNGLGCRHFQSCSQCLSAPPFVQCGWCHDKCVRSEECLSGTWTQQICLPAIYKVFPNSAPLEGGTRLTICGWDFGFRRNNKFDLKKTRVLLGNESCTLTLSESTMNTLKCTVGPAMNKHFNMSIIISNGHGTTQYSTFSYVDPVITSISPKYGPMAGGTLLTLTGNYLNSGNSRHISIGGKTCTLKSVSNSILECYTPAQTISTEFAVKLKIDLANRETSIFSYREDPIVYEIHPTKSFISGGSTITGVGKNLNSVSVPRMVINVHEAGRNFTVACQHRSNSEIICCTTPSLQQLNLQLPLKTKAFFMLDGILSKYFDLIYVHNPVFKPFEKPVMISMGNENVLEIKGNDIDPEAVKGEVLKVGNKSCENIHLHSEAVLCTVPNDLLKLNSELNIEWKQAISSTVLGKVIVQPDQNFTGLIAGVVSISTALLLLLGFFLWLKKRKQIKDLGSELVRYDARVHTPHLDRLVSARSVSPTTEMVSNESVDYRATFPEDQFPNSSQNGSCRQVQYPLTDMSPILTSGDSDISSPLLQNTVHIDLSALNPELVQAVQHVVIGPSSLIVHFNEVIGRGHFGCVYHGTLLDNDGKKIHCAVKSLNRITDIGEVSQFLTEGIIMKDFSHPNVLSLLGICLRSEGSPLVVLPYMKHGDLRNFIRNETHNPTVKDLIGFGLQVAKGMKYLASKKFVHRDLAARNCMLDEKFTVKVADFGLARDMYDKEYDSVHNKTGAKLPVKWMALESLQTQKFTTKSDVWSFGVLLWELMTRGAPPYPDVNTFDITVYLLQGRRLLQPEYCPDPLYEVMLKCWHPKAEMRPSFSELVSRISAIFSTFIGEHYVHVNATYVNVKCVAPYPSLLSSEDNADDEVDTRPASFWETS

[6] = target: Hepatocyte growth factor receptor (Homo sapiens, UniProt P08581); assay: as §1; conditions: at 1 µM
[7] = tested on: Hepatocyte growth factor receptor (Homo sapiens), P08581 [M1250T]; assay: as §1; conditions: at 1 µM
Hepatocyte growth factor receptor (Homo sapiens), P08581 [M1250T], sequence (P08581 whole entry M1250T): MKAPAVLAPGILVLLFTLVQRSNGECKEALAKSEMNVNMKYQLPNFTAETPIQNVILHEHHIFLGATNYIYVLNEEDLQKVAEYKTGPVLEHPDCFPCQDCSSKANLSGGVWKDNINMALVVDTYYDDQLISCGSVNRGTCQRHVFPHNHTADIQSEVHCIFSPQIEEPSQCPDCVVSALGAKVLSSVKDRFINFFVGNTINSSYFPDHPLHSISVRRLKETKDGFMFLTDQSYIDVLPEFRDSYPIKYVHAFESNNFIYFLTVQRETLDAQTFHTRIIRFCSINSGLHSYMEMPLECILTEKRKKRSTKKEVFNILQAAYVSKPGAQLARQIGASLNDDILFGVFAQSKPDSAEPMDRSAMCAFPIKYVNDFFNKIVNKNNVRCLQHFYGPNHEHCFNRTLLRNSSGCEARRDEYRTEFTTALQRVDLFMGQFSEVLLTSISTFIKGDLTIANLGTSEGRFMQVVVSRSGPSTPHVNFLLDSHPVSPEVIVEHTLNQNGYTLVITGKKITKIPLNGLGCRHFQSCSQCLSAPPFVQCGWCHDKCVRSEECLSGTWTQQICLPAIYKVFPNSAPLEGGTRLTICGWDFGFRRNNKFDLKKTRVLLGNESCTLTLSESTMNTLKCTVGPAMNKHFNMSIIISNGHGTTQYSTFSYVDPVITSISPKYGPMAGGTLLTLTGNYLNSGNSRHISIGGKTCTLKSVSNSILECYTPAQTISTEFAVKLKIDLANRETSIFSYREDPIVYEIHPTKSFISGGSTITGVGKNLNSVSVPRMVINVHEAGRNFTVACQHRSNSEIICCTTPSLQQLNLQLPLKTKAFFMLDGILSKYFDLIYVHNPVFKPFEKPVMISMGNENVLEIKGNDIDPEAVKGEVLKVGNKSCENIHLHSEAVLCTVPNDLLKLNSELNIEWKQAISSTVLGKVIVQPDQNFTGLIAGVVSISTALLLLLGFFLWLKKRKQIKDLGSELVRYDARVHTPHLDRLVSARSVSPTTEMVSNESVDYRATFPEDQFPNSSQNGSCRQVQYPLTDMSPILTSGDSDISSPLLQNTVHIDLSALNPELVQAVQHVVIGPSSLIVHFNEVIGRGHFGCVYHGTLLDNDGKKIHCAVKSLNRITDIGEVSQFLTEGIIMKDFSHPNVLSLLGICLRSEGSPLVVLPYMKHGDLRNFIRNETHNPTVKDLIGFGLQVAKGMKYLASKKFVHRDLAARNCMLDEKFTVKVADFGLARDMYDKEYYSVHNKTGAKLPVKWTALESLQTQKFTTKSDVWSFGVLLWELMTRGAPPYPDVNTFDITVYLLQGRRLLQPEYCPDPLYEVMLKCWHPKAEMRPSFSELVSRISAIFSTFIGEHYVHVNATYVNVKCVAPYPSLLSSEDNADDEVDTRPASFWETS

[8] = target: AP2-associated protein kinase 1 (Homo sapiens, UniProt Q2M2I8); assay: Selectivity interaction (KinomeScan (DiscoverX)) EUB0000092b AAK1; conditions: at 10 µM
[9] = target: Vascular endothelial growth factor receptor 2 (Homo sapiens, UniProt P35968); assay: Selectivity interaction (Kinase panel (Eurofins)) EUB0001564a KDR; conditions: at 1 µM
[10] = target: Mitogen-activated protein kinase 4 (Homo sapiens) (UniProt P31152); assay: Selectivity interaction (KinomeScan (DiscoverX)) EUB0000045b MAPK4
Mitogen-activated protein kinase 4 (Homo sapiens), sequence (P31152 whole entry): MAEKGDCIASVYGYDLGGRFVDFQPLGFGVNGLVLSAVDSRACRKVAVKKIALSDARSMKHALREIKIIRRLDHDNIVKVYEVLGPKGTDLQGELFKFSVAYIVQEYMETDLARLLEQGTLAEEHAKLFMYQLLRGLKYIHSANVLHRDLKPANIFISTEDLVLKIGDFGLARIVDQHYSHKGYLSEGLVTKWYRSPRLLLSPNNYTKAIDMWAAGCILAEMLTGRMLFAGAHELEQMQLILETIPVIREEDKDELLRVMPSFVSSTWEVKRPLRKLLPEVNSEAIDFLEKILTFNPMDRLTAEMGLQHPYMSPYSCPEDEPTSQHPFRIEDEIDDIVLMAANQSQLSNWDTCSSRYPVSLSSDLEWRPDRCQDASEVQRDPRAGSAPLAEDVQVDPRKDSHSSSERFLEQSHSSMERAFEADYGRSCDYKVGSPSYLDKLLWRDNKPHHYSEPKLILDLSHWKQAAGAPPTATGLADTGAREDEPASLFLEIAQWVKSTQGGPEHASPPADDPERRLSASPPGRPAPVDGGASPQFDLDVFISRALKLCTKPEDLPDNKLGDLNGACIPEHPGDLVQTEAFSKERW

[11] = target: Proto-oncogene tyrosine-protein kinase Src (Homo sapiens, UniProt P12931); assay: Selectivity interaction (KinomeScan (DiscoverX)) EUB0000655a SRC; conditions: at 10 µM
Proto-oncogene tyrosine-protein kinase Src, sequence (P12931 2-536 limits assumed): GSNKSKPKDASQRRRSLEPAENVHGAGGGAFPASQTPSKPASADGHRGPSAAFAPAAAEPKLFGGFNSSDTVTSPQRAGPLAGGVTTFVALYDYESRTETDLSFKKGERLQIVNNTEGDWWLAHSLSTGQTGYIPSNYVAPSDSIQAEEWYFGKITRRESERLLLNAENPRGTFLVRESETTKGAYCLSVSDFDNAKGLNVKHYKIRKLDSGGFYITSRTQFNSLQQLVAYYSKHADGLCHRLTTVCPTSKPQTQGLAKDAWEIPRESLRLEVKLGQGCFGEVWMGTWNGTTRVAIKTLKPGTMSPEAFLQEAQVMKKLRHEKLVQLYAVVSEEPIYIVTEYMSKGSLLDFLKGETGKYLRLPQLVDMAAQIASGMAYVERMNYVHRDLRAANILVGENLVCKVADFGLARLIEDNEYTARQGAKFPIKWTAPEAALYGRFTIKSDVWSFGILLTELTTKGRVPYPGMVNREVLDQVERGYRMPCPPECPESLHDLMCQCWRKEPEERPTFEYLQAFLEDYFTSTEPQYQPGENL

Phosphorylase b kinase gamma catalytic chain, skeletal muscle/heart isoform (Homo sapiens), sequence (Q16816 whole entry, looked up, canonical isoform): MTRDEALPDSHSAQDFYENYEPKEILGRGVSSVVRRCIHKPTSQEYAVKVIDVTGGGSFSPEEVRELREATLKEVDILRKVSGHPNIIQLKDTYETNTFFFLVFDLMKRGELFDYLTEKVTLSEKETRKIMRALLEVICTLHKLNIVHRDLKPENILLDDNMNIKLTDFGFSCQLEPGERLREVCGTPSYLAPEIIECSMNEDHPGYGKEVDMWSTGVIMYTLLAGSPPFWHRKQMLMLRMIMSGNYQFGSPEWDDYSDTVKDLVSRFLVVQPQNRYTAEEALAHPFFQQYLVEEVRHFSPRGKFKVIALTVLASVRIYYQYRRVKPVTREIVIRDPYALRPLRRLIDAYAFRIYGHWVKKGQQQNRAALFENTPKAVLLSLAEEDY

Compound: Cc1cc([C@@H](C)Nc2ccccc2C(=O)O)c2nc(N3CCOCC3)cc(=O)n2c1 [AZD-6482]
- % of control [1]: 93%

Compound: COc1cc(Nc2nc(C)cc(-c3cnn4nc(OC)ccc34)n2)cc(C(F)(F)F)c1
- % of control [2]: 86%

- % of inhibition [3]: 17.3%
- % of inhibition ([4]; at 0.01 µM): -12.1%
- % of inhibition ([4]; at 0.04 µM): -3.2%
- % of inhibition ([4]; at 0.2 µM): 0%
- % of inhibition ([4]; at 1 µM): -6.5%
- % of inhibition ([4]; at 5 µM): -21.9%
Compound: CC[C@@H]1[C@H](F)C(=O)N[C@@H]1COc1nccc2cc(C(N)=O)c(OC)cc12 [ZIMLOVISERTIB]

Compound: Nc1cnc(N2CCc3cc(S(=O)(=O)Nc4c(F)cc(Cl)cc4F)cc(N4CCCC4=O)c32)nc1 [TP-020n]
- % of control [5]: 69%
- % of control [6]: 69%
- % of control [7]: 100%

Compound: CCC(=O)N1CCN(c2ccc(-n3c(=O)ccc4cnc5ccc(-c6cnc7ccccc7c6)cc5c43)cc2C(F)(F)F)CC1
- % of control [8]: 75%

- % of inhibition [9]: 50.1%
Compound: CC[C@@H](Nc1c(C#N)c(-c2ccc(-c3cccc(C)c3F)cc2)nc2cnccc12)C(=O)O [BAY-091]

Compound: C=CC(=O)Nc1cc(-n2c(=O)ccc3cnc4ccc(-c5ccc(NS(C)(=O)=O)cc5)cc4c32)ccc1C
- % of control ([10]; at 1 µM): 91%
- % of control ([10]; at 10 µM): 100%

Compound: CN(C)CCOc1ccc(-c2nc(-c3ccncc3)c(-c3ccc4c(c3)CC/C4=N\O)[nH]2)cc1
- % of control [11]: 77%
